From publication PMC4732562 (2015) come the findings set out here.

A word on the Kd: it is a measure of binding affinity in units of concentration. The low end stands for tighter binding, the high end for weaker binding.

SMILES strings stand for the structures.

The test system of the test is 3',3'-cGAMP riboswitch (Gs1761 aptamer, A2G/U72C/C73U) (RNA, riboswitch) GGUACACGACAAUACUAAACCAUCCGCGAGGAUGGGGCGGAAAGCCUAAGGGUCUCCCUGAGACAGCCGGGCUGCCGAAAUAUC
Put plainly: ITC. As to conditions: 35 °C; one set of sites; buffer in supplement.

Regarding `Nc1nc2c(ncn2[C@@H]2O[C@@H]3COP(=O)(O)O[C@H]4[C@@H](O)[C@H](n5cnc6c(=O)[nH]c(N)nc65)O[C@@H]4COP(=O)(O)O[C@H]3[C@H]2O)c(=O)[nH]1`, the Kd was determined as 0.93 µM.

For `Nc1nc2c(ncn2[C@@H]2O[C@@H]3COP(=O)(O)O[C@H]4[C@@H](O)[C@H](n5cnc6c(N)ncnc65)O[C@@H]4COP(=O)(O)O[C@H]3[C@H]2O)c(=O)[nH]1`, the Kd came out at 0.07 µM.
